Patent publication US20240108654A1, “COMBINATION OF A T CELL THERAPY AND A DGK INHIBITOR” (Juno Therapeutics, Inc., priority 2021, published 2024)

Tests used:
[1] = test system: anti-CD19 CAR-expressing T cells; experiment: T cell proliferation during acute stimulation with plate-bound anti-CAR anti-idiotypic antibody (Incucyte confluence); assay type: cell-based, human; details: 30 μg/mL plate-bound anti-idiotypic antibody, seven days, compound present during stimulation
Procedure: T cell proliferation during stimulation with 30 μg/mL of plate-bound anti-CAR anti-idiotypic antibody in the presence of Compound 17 was monitored for seven days using an Incucyte imaging system. Cell proliferation was monitored by analyzing the occupied area (% confluence) of cell images over time; as cells proliferate, the confluence increases.
(§1) Triplicate values for cell compositions manufactured from the two different healthy donors are shown.

[2] = test system: anti-CD19 CAR-expressing T cells; experiment: Rescue treatment of chronically stimulated CAR-T cells: cytokine production (MSD), 3D tumor spheroids; assay type: cell-based, human; details: five days 3D co-culture with A549.CD19 and Granta-519 spheroids
Procedure: (§2) Anti-CD19 CAR-expressing T cells, produced as described in Example 1, were chronically stimulated with plate-bound CAR-specific anti-idiotypic antibody for seven days as described in Example 2, but in the absence of Compound 17 during chronic stimulation. Instead, chronically stimulated CAR T cells were treated with Compound 17 during re-challenge with CD19-expressing tumor cells, after which cytolytic activity and cytokine production were assessed.
Supernatant was collected at day 5 from the above tumor spheroid cultures with chronically stimulated CAR-expressing T cells. Cytokine production was measured from the supernatant by meso scale discovery (MSD) analysis of the collected cell supernatants. […] Duplicate values for cell compositions manufactured from the two different healthy donors are shown.

[3] = test system: anti-CD19 CAR-expressing T cells; experiment: Cytolytic function of CAR-T cells co-cultured with CD19-expressing lymphoma cells in presence of compound; assay type: cell-based, human; details: co-culture with K562.CD19, Granta-519 and Raji cells, 2.5:1 effector:target, compound present
Procedure: The cytolytic function of T cells treated with Compound 17 was assessed following co-culture of the combined CAR-T cell composition with various CD19-expressing lymphoma cells at a 2.5:1 effector:target ratio in the presence of Compound 17. The target lymphoma cells were labeled with NucLight Red (NLR) to permit their tracking by microscopy. Cytolytic activity was assessed by measuring the loss of viable target cells over a period of four to seven days, as determined by red fluorescent signal (using the IncuCyte® Live Cell Analysis System, Essen Bioscience).
as §1

[4] = test system: anti-CD19 CAR-expressing T cells; experiment: Rescue treatment of chronically stimulated CAR-T cells: cytolytic activity, 3D tumor spheroids; assay type: cell-based, human; details: rescue treatment during co-culture; A549.CD19 and Granta-519 spheroids, day 9
Procedure: as §2
Cytolytic activity also was assessed in CD19-expressing tumor spheroid cultures incubated with chronically stimulated CAR-T cells in the presence of DGKi. A549 CD19+ tumor spheroids or Granta-519 tumor spheroids were incubated with the anti-CD19 CAR-expressing T cells at an effector to target ratio of 1:2 for up to 14 days in the presence of DGKi (0-1000 nM). The tumor spheroids were engineered to express a red fluorescent dye to permit monitoring of tumor cell lysis by microscopy during the assay. Cytolytic activity was assessed by monitoring fluorescence over time, and the tumor volume (normalized to time zero) was measured as the number of red calibrated units (RCU)×μm^2 area. […] Duplicate values for cell compositions manufactured from the two different healthy donors are shown.

Human venous whole blood = experiment: Human whole blood IFN-γ assay; assay type: cell-based; details: anti-CD3 and anti-CD28 1 μg/mL each, 24 hours; 3 μM reference compound as 100% activation; read-out: INFg Whole Blood Normalized Agonist EC50
Procedure: Human venous whole blood (22.5 μL per well), obtained from healthy donors, was pre-treated with compounds for one hour at 37° C. in a humidified 95% air/5% CO2 incubator. The blood was stimulated with 2.5 μL anti-human CD3 and anti-CD28 mAb at a final concentration of 1 μg/mL each for 24 hours at 37° C. IFN-γ in the supernatants was measured using ALphLISA kit (Cat #AL217).

[5] = test system: anti-CD19 CAR-expressing T cells; experiment: Cytolytic activity of CAR-T cells concurrently treated during chronic stimulation, 3D tumor spheroids; assay type: cell-based, human; details: concurrent treatment during chronic stimulation; A549.CD19 and Granta-519 spheroids, day 9
Procedure: To simulate conditions of chronic stimulation, approximately 20,000 anti-CD19 CAR-expressing T cells of a combined CAR-T cell composition produced as described in Example 1 from two healthy adult donors were incubated with 30 μg/mL of plate-bound CAR-specific anti-idiotypic antibody (see, e.g., WO2018/023100) at 37° C. for a period of seven days. During this seven-day period, engineered CAR T cells were concurrently treated with Compound 17 (0.1-1000 nM) or a vehicle control added at day 0.
To further assess activity of chronically stimulated cell, the chronically stimulated CAR-T cells that had been concurrently treated with DGKi were incubated with A549 CD19+ tumor spheroids or Granta-519 tumor spheroids to rechallenge the CAR-T cells at an effector to target ratio of 1:2 for up to 14 days. The tumor spheroids were engineered to express a red fluorescent dye to permit monitoring of tumor cell lysis by microscopy during the assay.
The antigen-specific cytolytic activity of the chronically stimulated CAR-expressing T cells was assessed by monitoring fluorescence (indicative of tumor cell lysis) over time. The tumor volume (normalized to time zero) was measured as the number of red calibrated units (RCU)×μm^2 area. […] Duplicate values for cell compositions manufactured from the two different healthy donors are shown.

[6] = test system: anti-CD19 CAR-expressing T cells; experiment: T cell viability in acute stimulation assays; assay type: cell-based, human
[7] = test system: anti-CD19 CAR-expressing T cells; experiment: Activated effector phenotype of CD4+ and CD8+ CAR-expressing cells under acute stimulation; assay type: cell-based, human
anti-HPV16 eTCR T cells = experiment: Rescue treatment of chronically stimulated eTCR T cells: cytolytic function against HPV-expressing CaSki cells; assay type: cell-based, human; details: 100 nM compound during co-culture, 2.5:1 effector:target; eTCR cells pre-stimulated with 10 or 20 μg/mL anti-Vbeta
From the text: Primary human CD4+ and CD8+ T cells were isolated from healthy donors by immunoaffinity-based methods. The isolated CD4+ and CD8+ T cells were combined and stimulated with an anti-CD3/anti-CD28 reagent, and then were transduced with a lentiviral vector encoding an anti-human papillomavirus 16 (anti-HPV16) eTCR. The nucleotide sequences encoding the beta chain and the alpha chain of the eTCR were separated by a sequence encoding a 2A ribosome skip element. Following transduction, the cells were cultured in media containing human serum and cytokines for 9-10 days prior to further assessment. To assess the effects of rescue treatment with Compound 17 on cytolytic function, eTCR cells were stimulated for six days using 10 μg/mL or 20 μg/mL plate-bound antibody against the TCR Vbeta chain in the absence of Compound 17. Following chronic stimulation, the eTCR-T cells were co-cultured with HPV-expressing CaSki cells at a 2.5:1 effector:target ratio in the presence of Compound 17 at 100 nM. As a control, chronically stimulated eTCR cells were co-cultured with CaSki cells in the absence of Compound 17. The CaSki cells were transduced with NucLight Red (NLR) and tumor cell number was monitored by Incucyte®.

For `CC[C@H]1CN([C@@H](CC)c2ccc(C(F)(F)F)cc2)[C@H](CC)CN1c1nc(=O)n(C)c2ccc(C#N)nc12` [Compound 17, 4-((2S,5R)-2,5-diethyl-4-((S)-1-(4-(trifluoromethyl)phenyl)propyl)piperazin-1-yl)-1-methyl-2-oxo-1,2-dihydropyrido[3,2-d]pyrimidine-6-carbonitrile], the “T cell proliferation (% confluence)” value [1] was “did not affect T cell proliferation”, the “production of IFNγ, IL-2 and TNFα in supernatant” value [2] was “dose-dependent increase in production of all three cytokines” and the “cytolytic function (percent specific lysis)” value [3] was “did not affect cytolytic function”. For the same compound, the “CAR-T cell cytolytic activity (normalized tumor volume)” value [4] was “improved the cytolytic activity”, the EC50 (Human venous whole blood) was 0.02 µM and the “CAR-T cell cytolytic activity (normalized tumor volume)” value [5] was “modestly reduced the cytolytic activity”. The T cell viability [6] was “no impact”, the “number of CD4+ and CD8+ CAR-expressing cells having an activated effector phenotype” value [7] was “increased” and the “cytolytic function of chronically stimulated eTCR cells (CaSki tumor cell number)” value (anti-HPV16 eTCR T cells) was “able to improve cytolytic function”.
